Measurements published in patent US20230146870A1, “METHOD TO QUANTIFY AFFINITY AND SELECTIVITY OF SMALL MOLECULES FOR PROTEINS IN LIVING CELLS” (Ohio State Innovation Foundation, priority 2021, published 2023).
Values joined by “and” are separate entries in the source; they are usually repeats but may differ in a detail not shown here. Equal values may be shown once. Read-outs that look alike come from different tables or passages of the source.

Columns and labels:
[1] = tested on: HEK293 cells expressing PKCβI-mVenus; assay: Kinetics of uptake of probes in HEK293 cells transiently transfected with PKCβI-mVenus; format: cell-based; conditions: probe 1 μM, room temperature, BIM1 2 μM, 4% FBS
Experimental: Cells were treated with probes and analyzed by flow cytometry. […] [BIM1]=2 μM. [FBS]=4%.
(§1) To investigate the potential for quantitative analysis of binding to PKCs expressed in cells, we evaluated whether 1-3 could readily achieve equilibrium, which is necessary for measurements of cellular equilibrium dissociation constants (Kd).
The cells were re-suspended in fresh reduced serum media lacking antibiotics (4% FBS) at a cell density of ˜500,000 cells per mL and were added to a 96-well plate (100 μL per well). […] Fluorescent probes were prepared as absorbance-normalized 1 mM DMSO stock solutions and diluted into reduced serum DMEM media lacking antibiotics (4% FBS) to achieve a final concentration of the probe of 1 μM ([…]). [BIM1]=2 μM. After addition of probes, cells were analyzed at room temperature every 5 min as singletons. Living cells with the greatest green fluorescence from expression of mVenus (top 20%, transfected) and the lowest green fluorescence (bottom 20%, non-transfected) were gated to obtain median PB450 values of uptake of the fluorescent probes. For the slower kinetics of uptake of probe 3, cells were analyzed every 20 min in triplicate. These curves were fitted with a one-phase association model (GraphPad Prism 9) to determine t1/2 values.

murine PKCβI-mVenus = target: T1, murine PKCβI-mVenus (Mus musculus, UniProt P68404); assay: FPCBA saturation binding, HEK293 cells expressing PKCβI-mVenus (Example 3); conditions: BIM1 2 μM, 2 h at 37° C., 4% FBS
T1 construct: fused on or other part: mVenus at the C-terminus
T1 sequence (P68404 2-621 limits assumed): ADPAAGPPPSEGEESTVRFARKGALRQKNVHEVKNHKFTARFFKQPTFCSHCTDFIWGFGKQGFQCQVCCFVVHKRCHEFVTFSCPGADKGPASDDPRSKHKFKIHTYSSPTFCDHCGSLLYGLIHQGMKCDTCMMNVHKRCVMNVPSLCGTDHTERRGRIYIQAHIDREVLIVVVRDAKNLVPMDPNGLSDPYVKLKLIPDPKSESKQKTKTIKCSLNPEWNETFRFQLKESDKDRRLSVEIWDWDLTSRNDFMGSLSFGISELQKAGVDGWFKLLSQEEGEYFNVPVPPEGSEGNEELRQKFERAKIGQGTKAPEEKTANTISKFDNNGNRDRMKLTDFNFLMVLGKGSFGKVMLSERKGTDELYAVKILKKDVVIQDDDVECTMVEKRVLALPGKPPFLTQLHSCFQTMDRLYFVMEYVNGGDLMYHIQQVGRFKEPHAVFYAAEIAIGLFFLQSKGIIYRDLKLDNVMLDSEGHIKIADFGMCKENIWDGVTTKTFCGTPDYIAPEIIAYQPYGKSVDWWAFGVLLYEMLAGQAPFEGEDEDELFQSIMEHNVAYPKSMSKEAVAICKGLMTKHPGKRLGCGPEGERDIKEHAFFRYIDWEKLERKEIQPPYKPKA
Excerpt: as §1

PKCβI-mVenus = target: T2, PKCβI-mVenus (Mus musculus, UniProt P68404); assay: Confocal microscopy of translocation of PKCβI-mVenus in HEK293 cells; format: cell-based; conditions: 2 μM, 2 h
T2 construct: we generated expression vectors for eight full-length mouse isozymes; expressed in transfected cells; host or cells: HEK293 (ATCC CRL-1573), transient transfection with CMV-PKC betaI-mVenus-N1
T2 sequence (P68404 whole entry): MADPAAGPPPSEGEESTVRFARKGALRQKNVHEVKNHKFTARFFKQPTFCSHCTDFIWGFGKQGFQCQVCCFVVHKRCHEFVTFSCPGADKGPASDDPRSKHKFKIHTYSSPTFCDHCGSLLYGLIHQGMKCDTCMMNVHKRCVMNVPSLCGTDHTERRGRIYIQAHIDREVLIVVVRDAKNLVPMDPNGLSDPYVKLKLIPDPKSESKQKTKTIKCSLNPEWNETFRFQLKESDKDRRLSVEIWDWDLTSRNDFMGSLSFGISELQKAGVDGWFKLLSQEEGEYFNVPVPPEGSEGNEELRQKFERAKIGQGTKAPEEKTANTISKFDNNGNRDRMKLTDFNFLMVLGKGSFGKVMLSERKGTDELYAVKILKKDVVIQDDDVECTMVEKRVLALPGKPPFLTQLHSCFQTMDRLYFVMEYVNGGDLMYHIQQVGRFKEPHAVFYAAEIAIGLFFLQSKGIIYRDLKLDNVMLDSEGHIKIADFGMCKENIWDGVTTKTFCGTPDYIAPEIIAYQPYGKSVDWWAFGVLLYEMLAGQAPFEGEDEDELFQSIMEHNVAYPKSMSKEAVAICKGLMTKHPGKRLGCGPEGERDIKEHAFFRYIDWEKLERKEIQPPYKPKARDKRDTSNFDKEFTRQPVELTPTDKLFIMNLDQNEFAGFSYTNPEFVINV
Experimental: FIGS. 36A-36D provide confocal and DIC micrographs of living HEK293 cells transiently transfected to express PKCβI-mVenus. […] Scale bars=10 microns.
This IRES vector was derived from a previously reported^52 variant encoding the somewhat less fluorescent protein Venus.
Living cells cultured on an 8-well chamber glass slide (Ibidi μ-Slide, 300 μL, 100,000 cells/well) were imaged with an inverted Leica TCS SP8 confocal laser-scanning microscope (63× oil-immersion objective). Fluorescent probes were excited at 405 nm and mVenus was excited at 488 nm. Emitted photons were collected from 425-500 nm and 500-650 nm. For imaging, transiently transfected HEK293 cells in complete medium (10% FBS) were plated on the Ibidi μ-Slide for 16 h to promote adherence. Concentrated stock solutions of fluorescent probes in DMSO were serially diluted 500-fold in serum-free DMEM medium to afford 2× stock solutions (0.2% DMSO). Half of the cell culture medium (150 μL) was carefully removed by pipet and gently replaced with the 2× stock solution of the probe in serum-free medium (final [FBS]˜5%). Cells were treated with probes (2 μM) at 37° C. for 2 h before imaging by microscopy. Laser power and PMT gain settings were identical for all images and controls within a given experiment for accurate comparisons of cellular fluorescence.

[2] = Cytotoxicity assay, 48 h, flow cytometry; format: cell-based; conditions: human, HeLa cells
Experimental: Trypsinized HeLa cells were resuspended at 40,000 cells/mL in DMEM medium containing 10% FBS and seeded at 8,000 cells/200 μL/well in a treated 96-well plate. The cells were incubated for 16 h at 37° C. The medium was removed and DMEM medium containing 10% FBS treated with compounds (prepared as 3-fold serial dilutions, 0.1% DMSO content) was added. Cells were treated for 48 h at 37° C. before removal of treated medium, washing cells with PBS (100 μL), and addition of Trypsin-EDTA (50 μL) for 10 min at 37° C. Trypsin was neutralized and cells resuspended by addition of 100 μL of complete medium treated with propidium iodide (final concentration 3 μM). Cellular viabilities were analyzed by gating of cells that lack fluorescence of propidium iodide by flow cytometry.

HeLa cells [3] = assay: Time to equilibrium / cellular uptake of PB-GABA-Taxol by flow cytometry; conditions: probe 1.5 μM
Experimental: Tubes were incubated in a plate shaker, and at each time point 150 pL of cells were analyzed, in triplicate, in wells containing propidium iodide (3 μM final concentration) to identify live cells by flow cytometry. Median pacific blue fluorescence was plotted as a function of time and half-time measurements were determined using an Exponential One-phase association model (GraphPad Prism 9).

[4] = tested on: T3, microtubules in living HeLa cells; assay: Saturation binding of PB-GABA-Taxol in living HeLa cells by flow cytometry
T3 construct: rows headed: PB-GABA-Taxol molecules/cell at saturation; other: calibration beads, flow cytometry; other: HeLa cell volume 4.5; cellular Kd of PB-GABA-Taxol for microtubules; other: HeLa cells, 4% FBS, 37° C., verapamil 100 μM, 3 h; other: 10% FBS vs
Experimental: To quantify the affinity of PB-GABA-Taxol for microtubules in living cells (cellular Kd), we developed the saturation binding method shown in FIG. 3. In this assay the cellular Kd was measured by varying the concentration of the fluorescent probe added to cells at equilibrium as established by kinetic assays of probe uptake. Total binding of this probe to specific and non-specific sites in cells in the presence of the efflux inhibitor verapamil was determined by flow cytometry. Non-specific binding was quantified separately by addition of excess paclitaxel with the probe under the same conditions. Subtraction of the linear non-specific binding contribution from the total binding curve was used analyze specific binding of the probe to tubulin of microtubules. […]
OptiMEM medium containing 4% FBS was prepared as 2× stock solutions of different concentrations of PB-GABA-Taxol by serial dilution (final [DMSO]=1.2%). […] The percentage of non-specific binding was determined as non-specific binding divided by total binding. The signal window (SW) was calculated as previously described^2: SW=[(mean top (maximum) signal−mean bottom (minimum) signal)−(3)*(SD top signal+SD bottom signal)]/(SD top signal), where SD=standard deviation.

HeLa cells [5] = assay: Cellular viability of trypsinized HeLa cells under binding assay conditions; format: cell-based; conditions: 180 min
Experimental: Samples contained PB-GABA-Taxol (1.5 μM) unless otherwise noted. Viability was analyzed by flow cytometry at the time points shown. Dead cells were identified by changes in light scattering and staining with propidium iodide (3 μM). Changes in viability were less than 10% at 180 min under the conditions used for saturation binding and competitive binding assays, even in the presence of 100 μM paclitaxel.
For saturation binding assays, HeLa cells were incubated with PB-GABA-Taxol at 37° C. for 180 min in the presence of verapamil (100 μM).

[6] = target: crosslinked / purified microtubules; conditions: previously reported; read-out: biochemical Kd for microtubules; cited from earlier work
[7] = target: PKC 11 (C1B domain, tyrosine at the 22 position); conditions: phosphatidyl serine present, read-out: binding affinity (Kd) for DAG, cited from earlier work
[8] = tested on: microtubule network of HeLa cells (mScarlet-α-Tubulin); assay: Confocal microscopy of HeLa cells transfected with mScarlet-α-Tubulin; format: cell-based; conditions: 1 h at 37° C.
Experimental: (FIG. 28C) Characterization of fluorescent microtubule phenotypes in HeLa cells transiently transfected with mScarlet-a-Tubulin and treated with the microtubule modulators (1 h at 37° C.). […] Scale bars=10 μm.
Cells were washed with PBS before treatment with PB-GABA-Taxol (100 nM) and (±)-verapamil hydrochloride (100 μM), with or without paclitaxel (10 μM) as a competitor, in phenol red-free DMEM supplemented with 10% FBS. Cells were incubated at 37° C. for 3 h prior to imaging by confocal microscopy. For experiments using HeLa cells transfected with mScarlet-α-tubulin, transient transfection was performed using a Invitrogen Lipofectamine 3000 Transfection kit (Thermo, L3000-075). Transfection used a 1× dose of lipid in OptiMEM (4% FBS) for 18 hours before washing of cells with PBS and treatment with the microtubule modulator for 1 h at 37° C.

[9] = tested on: cellular microtubules (HeLa cells); assay: Pilot screen of NCI Diversity Set VI: inhibition of binding of PB-GABA-Taxol, with dose-response validation
[10] = tested on: microtubules in living HeLa cells; assay: Allosteric modulator assay with PB-GABA-Taxol in living HeLa cells (cellular Kb, α); conditions: PB-GABA-Taxol 1.5 μM, verapamil 100 μM, 3 h, 37° C.
Excerpt: In this model, two compounds that engage tubulin at different binding sites influence the binding of each other through cooperativity. […] Smaller cooperativity factors (α) represent stronger effects on binding of the orthosteric probe. For these allosteric modulators, the apparent cellular affinity was defined as Kb, and the mathematical relationship between Kb and α is provided (equation 3).
The experimental method for allosteric binding assays was identical to the competition binding assays described previously. However, because it is inaccurate to describe an allosteric modulator with a competitive inhibitory constant (Ki), we used an allosteric modulator model (Kb) for data analysis. […] The observed occupancy of the orthosteric ligand is defined as KApp and is determined by the equilibrium dissociation constant of the orthosteric ligand (Kd), the concentration of allosteric ligand, its affinity for the receptor (Kb), and the strength by which the allosteric ligand affects receptor binding to the orthosteric ligand as defined by the cooperativity factor (a).

Molecule: CCCCCCN(CCCCCCCCCCCCNC(=O)c1cc2ccc(O)cc2oc1=O)C(=O)O[C@@]12[C@H](O)[C@@H](C)[C@@]3(O)[C@@H](C=C(CO)C[C@]4(O)C(=O)C(C)=C[C@@H]34)[C@@H]1C2(C)C [probe 2, (1aR,1bS,4aR,7aS,7bS,8R,9R,9aS)-4a,7b,9-trihydroxy-3-(hydroxymethyl)-1,1,6,8-tetramethyl-5-oxo-1,1a,1b,4,4a,5,7a,7b,8,9-decahydro-9aH-cyclopropa[3,4]benzo[1,2-e]azulen-9a-yl hexyl(12-(7-hydroxy-2-oxo-2H-chromene-3-carboxamido)dodecyl)carbamate]
- half-time (t1/2) of cellular uptake in transfected cells [1]: 0.233 h
- Cellular Kd for probe, PKCβI-mVenus (murine PKCβI-mVenus): prevented reliable measurements of cellular affinity
- translocation of PKCβI-mVenus (PKCβI-mVenus): translocated to cellular membranes

Molecule: COc1cc2c(c(OC)c1OC)-c1ccc(OC)c(=O)cc1[C@@H](NC(C)=O)CC2 [colchicine]
- IC50 at 48 h ([2]; with verapamil 25 µM, verapamil 25 μM): 13 ± 0.4 nM
- IC50 at 48 h ([2]; without verapamil): 20 ± 8 nM

Molecule: CC(=O)O[C@H]1C(=O)[C@]2(C)[C@@H](OC(=O)CCCNC(=O)c3cc4cc(F)c(O)c(F)c4oc3=O)C[C@H]3OC[C@@]3(OC(C)=O)[C@H]2[C@H](OC(=O)c2ccccc2)[C@]2(O)C[C@H](OC(=O)[C@H](O)[C@@H](NC(=O)c3ccccc3)c3ccccc3)C(C)=C1C2(C)C [PB-GABA-Taxol]
- half-time (t1/2) to equilibration of cellular fluorescence (HeLa cells [3]; 37° C., verapamil 100 μM): 0.55 h
- half-time (t1/2) to equilibration of cellular fluorescence (HeLa cells [3]; room temperature (23° C.)): 1.45 h
- reduction of apparent affinity by ligand depletion in 10% FBS ([4]; 10% FBS vs 4% or 1% FBS): 2 fold
- Kd ([4]; HeLa cells, 4% FBS, 37° C., verapamil 100 μM, 3 h, read-out: cellular Kd of PB-GABA-Taxol for microtubules): 1700 ± 400 nM
- cells remaining viable (HeLa cells [5]; 37° C., verapamil 100 μM): > 90%
- changes in viability (HeLa cells [5]; binding assay conditions, even with 100 μM paclitaxel): less than 10%
- Kd [6]: 265 nM

Molecule: diacylglycerol [DAG]
- Kd ([7]; tyrosine at the 22 position): 780000 nM
- Kd ([7]; tyrosine changed into tryptophan): 24000 nM

Molecule: NC(=O)c1cc2c3ccccc3ccn2c1-c1ccccc1 [NSC 93427]
- fluorescent microtubule phenotype [8]: dose-dependent disruption of microtubules
- inhibition of cellular fluorescence ([9]; 10 μM): nearly complete inhibition
- IC50 ([9]; HeLa cells, PB-GABA-Taxol): < 1000 nM
- cooperativity factor α [10]: 0.02
- Kb ([10]; read-out: cellular Kb (allosteric modulator)): 485 nM and 483 nM

Molecule: CCCCCCN(CCCCCCCCCCCCNC(=O)c1cc2ccc(N(CC)CC)cc2oc1=O)C(=O)O[C@@]12[C@H](O)[C@@H](C)[C@@]3(O)[C@@H](C=C(CO)C[C@]4(O)C(=O)C(C)=C[C@@H]34)[C@@H]1C2(C)C [probe 3, (1aR,1bS,4aR,7aS,7bS,8R,9R,9aS)-4a,7b,9-trihydroxy-3-(hydroxymethyl)-1,1,6,8-tetramethyl-5-oxo-1,1a,1b,4,4a,5,7a,7b,8,9-decahydro-9aH-cyclopropa[3,4]benzo[1,2-e]azulen-9a-yl (12-(7-(diethylamino)-2-oxo-2H-chromene-3-carboxamido)dodecyl)(hexyl)carbamate]
- half-time (t1/2) of cellular uptake in transfected cells [1]: > 1.67 h
- translocation of PKCβI-mVenus (PKCβI-mVenus): translocated to cellular membranes
